According to US8227508B2, “Dietary and pharmaceutical compositions containing carnosol and/or rosmanol and their uses” (DSM IP Assets B.V., priority 2006, dated 2012):

How the values were obtained:
[1] = target: T1, human serotonin re-uptake transporter (hSERT) (Homo sapiens, UniProt P31645); assay: Serotonin uptake inhibition in HEK-293 cells expressing hSERT; format: cell-based; conditions: transfected HEK-293 cells, [3H]-serotonin 20 nM, mean ± s.e.m. (n = 2)
T1 construct: host or cells: HEK-293
T1 sequence (P31645 whole entry): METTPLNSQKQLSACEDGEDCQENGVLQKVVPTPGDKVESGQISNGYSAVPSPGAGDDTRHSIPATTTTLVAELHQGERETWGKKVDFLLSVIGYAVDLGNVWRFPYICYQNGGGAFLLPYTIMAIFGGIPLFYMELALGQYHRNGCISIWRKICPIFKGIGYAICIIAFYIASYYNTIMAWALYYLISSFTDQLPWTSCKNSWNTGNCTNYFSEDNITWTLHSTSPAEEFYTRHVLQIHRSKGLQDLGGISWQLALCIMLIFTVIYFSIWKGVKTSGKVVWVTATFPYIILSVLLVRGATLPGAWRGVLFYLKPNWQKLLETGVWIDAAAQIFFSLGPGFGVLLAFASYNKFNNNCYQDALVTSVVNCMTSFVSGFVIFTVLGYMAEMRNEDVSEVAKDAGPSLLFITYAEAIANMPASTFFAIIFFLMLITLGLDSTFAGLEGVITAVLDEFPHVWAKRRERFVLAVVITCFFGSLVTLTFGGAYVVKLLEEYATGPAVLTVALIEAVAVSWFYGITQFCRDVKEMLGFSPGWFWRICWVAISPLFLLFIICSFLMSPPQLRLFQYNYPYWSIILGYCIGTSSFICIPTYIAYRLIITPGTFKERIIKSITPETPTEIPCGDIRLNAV
Procedure: The cells were routinely grown in Dulbecco's Modified Eagle's Medium (Bioconcept) containing 10% dialysed foetal calf serum (Invitrogen), penicillin, streptomycin, L-glutamine and the antibiotic G418 and passaged by-trypsinisation. On the day of assay, cells from 80% confluent flasks were harvested by gentle washing with warm phosphate buffered saline (PBS). […] Serotonin uptake into the cells was determined by addition of radio-labelled [^3H]-serotonin (GE Healthcare) at a concentration of 20 nM, and incubation for 40 minutes at 37° C. with gentle shaking. At the end of this time unincorporated label was removed by filtration though Unifilter 96 GF/B plates (Perkin Elmer) using a Tomtec Mach III M cell harvester. The incorporated serotonin retained on the plates was quantified by liquid scintillation counting using Microscint-40/Topcount (Perkin Elmer).

[2] = target: T2, monoamine oxidase B (MAO-B) (Homo sapiens, UniProt P27338); assay: Monoamine oxidase B inhibition (benzylamine substrate, HRP/vanillic acid readout); format: biochemical; conditions: mean ± s.e.m., n = 2
T2 sequence (P27338 1-520): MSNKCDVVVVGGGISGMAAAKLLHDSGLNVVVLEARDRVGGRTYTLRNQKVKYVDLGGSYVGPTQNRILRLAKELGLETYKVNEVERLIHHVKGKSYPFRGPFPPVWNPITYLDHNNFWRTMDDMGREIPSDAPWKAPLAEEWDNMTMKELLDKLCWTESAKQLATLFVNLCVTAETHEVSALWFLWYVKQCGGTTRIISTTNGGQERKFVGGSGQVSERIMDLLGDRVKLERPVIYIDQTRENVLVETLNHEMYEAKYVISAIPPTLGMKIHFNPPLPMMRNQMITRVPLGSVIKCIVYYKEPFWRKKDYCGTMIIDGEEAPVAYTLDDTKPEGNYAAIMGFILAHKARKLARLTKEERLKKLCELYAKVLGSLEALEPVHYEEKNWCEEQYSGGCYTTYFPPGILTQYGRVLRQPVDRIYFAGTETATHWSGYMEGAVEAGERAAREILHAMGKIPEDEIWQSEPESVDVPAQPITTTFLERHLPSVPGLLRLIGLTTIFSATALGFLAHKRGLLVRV
Procedure: The organic amines p-tyramine or benzylamine were used as substrates for the monoamine oxidase A (MAO-A) and B (MAO-B) enzymes respectively. The H2O2 produced by this reaction was quantified by reaction with vanillic acid, catalysed by horse radish peroxidase (HRP).
The reactions were carried out at 37° C. in polystyrene microtitre plates. The MAO enzymes (final concentration 2 U/ml) were mixed with either p-tyramine (Sigma, final concentration 0.5 mM) or benzylamine (Sigma, final concentration 0.5 mM) as appropriate and the chromogenic solution (containing vanillic acid (Fluka), 4-aminoantipyrine (Fluka) and horse radish peroxidase (Sigma), final concentrations 0.25 mM, 0.125 mM and 1 U/ml, respectively) in 0.2 M potassium phosphate buffer, pH 7.6. After 40 min incubation, plates were analysed in a microtitre plate absorbance reader, e.g. Spectramax M5 (Molecular Devices Corporation), at 495 nm.
The effects of carnosol and rosmanol on the monoamine oxidase enzymes were determined by their inclusion in the assay at a range of concentrations between 0.03 and 100 μM for 10 minutes prior to and during the incubation with substrate. To determine the effect of the compounds on the HRP-catalysed portion of the reaction, the MAO enzyme was replaced by H2O2 (Molecular Probes, final concentration 50 μM). […]

[3] = target: T3, human glycine transporter 1b (GlyT1) (Homo sapiens, UniProt P48067); assay: Glycine uptake inhibition in CHO cells expressing GlyT1; format: cell-based; conditions: 60 nM [3H]-glycine
T3 construct: expressed in transfected cells; host or cells: CHO
T3 sequence (P48067 1-652 isoform P48067-3): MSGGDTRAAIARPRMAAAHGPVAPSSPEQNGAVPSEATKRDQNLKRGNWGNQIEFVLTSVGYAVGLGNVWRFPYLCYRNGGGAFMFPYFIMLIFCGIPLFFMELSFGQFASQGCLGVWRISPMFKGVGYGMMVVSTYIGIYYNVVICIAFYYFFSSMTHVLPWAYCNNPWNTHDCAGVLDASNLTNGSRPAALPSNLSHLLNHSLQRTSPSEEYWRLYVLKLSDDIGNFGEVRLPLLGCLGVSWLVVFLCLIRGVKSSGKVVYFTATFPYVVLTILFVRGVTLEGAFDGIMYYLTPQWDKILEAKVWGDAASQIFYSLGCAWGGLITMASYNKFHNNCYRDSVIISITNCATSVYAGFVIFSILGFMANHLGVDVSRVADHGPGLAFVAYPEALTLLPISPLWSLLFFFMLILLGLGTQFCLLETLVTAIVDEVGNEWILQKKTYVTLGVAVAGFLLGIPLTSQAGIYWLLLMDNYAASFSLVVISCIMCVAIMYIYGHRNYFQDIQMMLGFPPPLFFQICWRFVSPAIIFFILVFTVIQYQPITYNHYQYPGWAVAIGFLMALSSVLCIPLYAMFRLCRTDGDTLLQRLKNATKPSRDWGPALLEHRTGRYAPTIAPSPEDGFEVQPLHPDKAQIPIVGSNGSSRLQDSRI
Procedure: CHO cells stably expressing the human glycine transporter 1b cDNA (GlyT1) were routinely grown in Dulbecco's Modified Eagle's Medium (Invitrogen, Carlsbad, USA) containing 10% dialysed foetal calf serum, penicillin, streptomycin, proline and the antibiotic G418. Cells were harvested by trypsinisation one day prior to the assay and were seeded in the above mentioned medium. Immediately prior to the assay, the medium was replaced by uptake buffer containing 150 mM NaCl, 1 mM CaCl2, 2.5 mM KCl, 2.5 mM MgCl2, 10 mM Glucose and 10 mM N-2-hydroxyethylpiperazine-N′-2-ethanesulfonic acid (HEPES buffer).
Glycine uptake into the cells was determined by addition of 60 nM radiolabelled [^3H]-glycine (Amersham Biosciences GE Healthcare, Slough, UK) and incubation for 30 minutes at room temperature. Following removal of unincorporated label by gentle washing three times with the above buffer, incorporated glycine was quantified by liquid scintillation counting.

SMILES | IC50 [1] [µM] | IC50 [2] [µM] | IC50 ([3]; read-out: IC50 for tritiated glycine uptake) [µM] | IC50 for tritiated glycine uptake (result in words) [3]
CC(C)c1cc2c(c(O)c1O)[C@@]13CCCC(C)(C)[C@@H]1C[C@@H]2OC3=O [Carnosol, carnosol] | 26.6 ± 6.9 | 107 ± 19.9 | 29.3 | –
CC(C)c1cc2c(c(O)c1O)[C@@]13CCCC(C)(C)[C@@H]1[C@H](OC3=O)[C@H]2O [Rosmanol, rosmanol] | 23.2 ± 9.7 | 73.3 ± 11.3 | – | inactive
